Results reported in PubChem BioAssay (NCI).
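Test compounds were applied to cells in 96-well plates for 48 hours at 5 doses. TGI: concentration producing complete growth inhibition.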 Active and inactive are the calls of the source. Rule as the data show it: active = GI50 below about 0.43 µM; inactive = the rest.

Columns and labels:
Assay in all cases: NCI tumour cell line growth inhibition, 48 h
HCT-116 colon = test system: HCT-116 colon
LOX IMVI melanoma = test system: LOX IMVI melanoma
SR leukemia = test system: SR leukemia
PC-3 prostate = test system: PC-3 prostate
KM12 colon = test system: KM12 colon
SF-295 CNS = test system: SF-295 CNS
NCI-H460 lung = test system: NCI-H460 lung
OVCAR-4 ovarian = test system: OVCAR-4 ovarian
SK-MEL-28 melanoma = test system: SK-MEL-28 melanoma
UO-31 renal = test system: UO-31 renal
A549 NSCLC = test system: A549 NSCLC
CCRF-CEM leukemia = test system: CCRF-CEM leukemia
T-47D breast = test system: T-47D breast
EKVX NSCLC = test system: EKVX NSCLC
SW-620 colon = test system: SW-620 colon
HCT-15 colon = test system: HCT-15 colon
SF-268 CNS = test system: SF-268 CNS
A498 renal = test system: A498 renal
RPMI-8226 leukemia = test system: RPMI-8226 leukemia
TK-10 renal = test system: TK-10 renal
OVCAR-5 ovarian = test system: OVCAR-5 ovarian
HS 578T breast = test system: HS 578T breast
IGROV1 ovarian = test system: IGROV1 ovarian
ACHN renal = test system: ACHN renal
K-562 leukemia = test system: K-562 leukemia
M14 melanoma = test system: M14 melanoma
SF-539 CNS = test system: SF-539 CNS
NCI-H226 lung = test system: NCI-H226 lung
SN12C renal = test system: SN12C renal
MDA-N = test system: MDA-N
CAKI-1 renal = test system: CAKI-1 renal
MCF7 breast = test system: MCF7 breast
NCI-H23 lung = test system: NCI-H23 lung
SK-MEL-2 melanoma = test system: SK-MEL-2 melanoma
BT-549 breast = test system: BT-549 breast
HL-60(TB) leukemia = test system: HL-60(TB) leukemia
UACC-257 melanoma = test system: UACC-257 melanoma
NCI/ADR-RES ovarian = test system: NCI/ADR-RES ovarian
COLO 205 colon = test system: COLO 205 colon
MALME-3M melanoma = test system: MALME-3M melanoma
786-0 renal = test system: 786-0 renal
HCC-2998 colon = test system: HCC-2998 colon
MOLT-4 leukemia = test system: MOLT-4 leukemia
OVCAR-8 ovarian = test system: OVCAR-8 ovarian
OVCAR-3 ovarian = test system: OVCAR-3 ovarian
DU-145 prostate = test system: DU-145 prostate
SK-OV-3 ovarian = test system: SK-OV-3 ovarian
HT29 colon = test system: HT29 colon
HOP-92 NSCLC = test system: HOP-92 NSCLC
SNB-19 CNS = test system: SNB-19 CNS
MDA-MB-435 = test system: MDA-MB-435
SNB-75 CNS = test system: SNB-75 CNS
RXF 393 renal = test system: RXF 393 renal
U251 CNS = test system: U251 CNS
MDA-MB-231 breast = test system: MDA-MB-231 breast
UACC-62 melanoma = test system: UACC-62 melanoma
SK-MEL-5 melanoma = test system: SK-MEL-5 melanoma
HOP-62 NSCLC = test system: HOP-62 NSCLC
NCI-H522 lung = test system: NCI-H522 lung

COC(=O)c1nc2c(C)c(O)c(Oc3c(C)c(O)c(O)c([C@H](C)CCC=C(C)C)c3O)c([C@H](C)CCC=C(C)C)c2o1
outcome (HCT-116 colon): inactive
outcome (LOX IMVI melanoma): inactive
outcome (SR leukemia): inactive
outcome (PC-3 prostate): inactive
outcome (KM12 colon): inactive
outcome (SF-295 CNS): inactive
outcome (NCI-H460 lung): inactive
outcome (OVCAR-4 ovarian): inactive
outcome (SK-MEL-28 melanoma): inactive
outcome (UO-31 renal): inactive
outcome (A549 NSCLC): inactive
outcome (CCRF-CEM leukemia): inactive
outcome (T-47D breast): inactive
outcome (EKVX NSCLC): inactive
outcome (SW-620 colon): inactive
outcome (HCT-15 colon): inactive
outcome (SF-268 CNS): inactive
outcome (A498 renal): inactive
outcome (RPMI-8226 leukemia): inactive
outcome (TK-10 renal): inactive
outcome (OVCAR-5 ovarian): inactive
outcome (HS 578T breast): inactive
outcome (IGROV1 ovarian): inactive
outcome (ACHN renal): inactive
outcome (K-562 leukemia): inactive
outcome (M14 melanoma): inactive
outcome (SF-539 CNS): inactive
outcome (NCI-H226 lung): inactive
outcome (SN12C renal): inactive
outcome (MDA-N): inactive
outcome (CAKI-1 renal): inactive
outcome (MCF7 breast): inactive
outcome (NCI-H23 lung): inactive
outcome (SK-MEL-2 melanoma): inactive
outcome (BT-549 breast): inactive
outcome (HL-60(TB) leukemia): inactive
outcome (UACC-257 melanoma): inactive
outcome (NCI/ADR-RES ovarian): inactive
outcome (COLO 205 colon): inactive
outcome (MALME-3M melanoma): inactive
outcome (786-0 renal): inactive
outcome (HCC-2998 colon): inactive
outcome (MOLT-4 leukemia): inactive
outcome (OVCAR-8 ovarian): inactive
outcome (OVCAR-3 ovarian): inactive
outcome (DU-145 prostate): inactive
outcome (SK-OV-3 ovarian): inactive
outcome (HT29 colon): inactive
outcome (HOP-92 NSCLC): inactive
outcome (SNB-19 CNS): inactive
outcome (MDA-MB-435): inactive
outcome (SNB-75 CNS): inactive

COc1ccc2c(c1)CC[C@@H]1[C@@H]2CC[C@]2(C)C(=O)/C(=C/c3ccc(C#N)cc3)C[C@@H]12
TGI (HCT-116 colon): > 100 µM
TGI (LOX IMVI melanoma): > 100 µM
TGI (SR leukemia): > 100 µM
TGI (PC-3 prostate): > 100 µM
TGI (KM12 colon): > 100 µM
TGI (SF-295 CNS): > 100 µM
TGI (NCI-H460 lung): > 100 µM
TGI (OVCAR-4 ovarian): > 100 µM
TGI (SK-MEL-28 melanoma): > 100 µM
TGI (UO-31 renal): > 100 µM
TGI (A549 NSCLC): > 100 µM
TGI (RXF 393 renal): > 100 µM
TGI (CCRF-CEM leukemia): > 100 µM
TGI (T-47D breast): > 100 µM
TGI (EKVX NSCLC): > 100 µM
TGI (SW-620 colon): > 100 µM
TGI (U251 CNS): > 100 µM
TGI (HCT-15 colon): > 100 µM
TGI (SF-268 CNS): > 100 µM
TGI (A498 renal): > 100 µM
TGI (RPMI-8226 leukemia): > 100 µM
TGI (TK-10 renal): > 100 µM
TGI (OVCAR-5 ovarian): > 100 µM
TGI (IGROV1 ovarian): > 100 µM
TGI (ACHN renal): > 100 µM
TGI (K-562 leukemia): > 100 µM
TGI (M14 melanoma): > 100 µM
TGI (SF-539 CNS): > 100 µM
TGI (NCI-H226 lung): > 100 µM
TGI (SN12C renal): > 100 µM
TGI (MDA-N): > 100 µM
TGI (CAKI-1 renal): > 100 µM
TGI (MCF7 breast): > 100 µM
TGI (NCI-H23 lung): > 100 µM
TGI (SK-MEL-2 melanoma): > 100 µM
TGI (BT-549 breast): > 100 µM
TGI (MDA-MB-231 breast): > 100 µM
TGI (UACC-257 melanoma): > 100 µM
TGI (NCI/ADR-RES ovarian): > 100 µM
TGI (COLO 205 colon): > 100 µM
TGI (UACC-62 melanoma): > 100 µM
TGI (SK-MEL-5 melanoma): > 100 µM
TGI (MALME-3M melanoma): > 100 µM
TGI (786-0 renal): > 100 µM
TGI (HCC-2998 colon): > 100 µM
TGI (MOLT-4 leukemia): > 100 µM
TGI (OVCAR-8 ovarian): > 100 µM
TGI (HOP-62 NSCLC): > 100 µM
TGI (NCI-H522 lung): > 100 µM
TGI (DU-145 prostate): > 100 µM
TGI (SK-OV-3 ovarian): > 100 µM
TGI (SNB-19 CNS): > 100 µM
TGI (MDA-MB-435): > 100 µM
TGI (SNB-75 CNS): > 100 µM
